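Values below derive from 48-hour exposures of cells grown in 96-well plates, with endpoints linearly interpolated between the two concentrations bracketing the appropriate inhibition level. Abbreviation: GI50, concentration required for 50% inhibition of growth. TGI marks complete inhibition of growth.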
Columns and labels:
Experiment in all cases: inhibition of tumour cell growth, NCI panel, 48 h; in the data active means GI50 below about 0.43 µM; inactive means the rest
K-562 leukemia = system: K-562 leukemia
DU-145 prostate = system: DU-145 prostate
SF-295 CNS = system: SF-295 CNS
MDA-MB-435 = system: MDA-MB-435
EKVX NSCLC = system: EKVX NSCLC
RXF 393 renal = system: RXF 393 renal
HOP-92 NSCLC = system: HOP-92 NSCLC
HOP-62 NSCLC = system: HOP-62 NSCLC
786-0 renal = system: 786-0 renal
HS 578T breast = system: HS 578T breast
MCF7 breast = system: MCF7 breast
CCRF-CEM leukemia = system: CCRF-CEM leukemia
OVCAR-3 ovarian = system: OVCAR-3 ovarian
T-47D breast = system: T-47D breast
SK-MEL-5 melanoma = system: SK-MEL-5 melanoma
COLO 205 colon = system: COLO 205 colon
MOLT-4 leukemia = system: MOLT-4 leukemia
PC-3 prostate = system: PC-3 prostate
RPMI-8226 leukemia = system: RPMI-8226 leukemia
MALME-3M melanoma = system: MALME-3M melanoma
SK-MEL-28 melanoma = system: SK-MEL-28 melanoma
UACC-257 melanoma = system: UACC-257 melanoma
OVCAR-5 ovarian = system: OVCAR-5 ovarian
SNB-75 CNS = system: SNB-75 CNS
NCI-H522 lung = system: NCI-H522 lung
CAKI-1 renal = system: CAKI-1 renal
MDA-MB-231 breast = system: MDA-MB-231 breast
SNB-19 CNS = system: SNB-19 CNS
NCI-H226 lung = system: NCI-H226 lung
IGROV1 ovarian = system: IGROV1 ovarian
A549 NSCLC = system: A549 NSCLC
NCI/ADR-RES ovarian = system: NCI/ADR-RES ovarian
SR leukemia = system: SR leukemia
HT29 colon = system: HT29 colon
SF-539 CNS = system: SF-539 CNS
NCI-H460 lung = system: NCI-H460 lung
TK-10 renal = system: TK-10 renal
LOX IMVI melanoma = system: LOX IMVI melanoma
SW-620 colon = system: SW-620 colon
BT-549 breast = system: BT-549 breast
SF-268 CNS = system: SF-268 CNS
SN12C renal = system: SN12C renal
OVCAR-8 ovarian = system: OVCAR-8 ovarian
HCC-2998 colon = system: HCC-2998 colon
HCT-116 colon = system: HCT-116 colon
OVCAR-4 ovarian = system: OVCAR-4 ovarian
UO-31 renal = system: UO-31 renal
NCI-H23 lung = system: NCI-H23 lung
HL-60(TB) leukemia = system: HL-60(TB) leukemia
ACHN renal = system: ACHN renal
U251 CNS = system: U251 CNS
KM12 colon = system: KM12 colon
UACC-62 melanoma = system: UACC-62 melanoma
A498 renal = system: A498 renal
HCT-15 colon = system: HCT-15 colon
M14 melanoma = system: M14 melanoma

Fc1ccc(-c2nn3c(CNc4ccccc4)nnc3s2)cc1
49.2 µM: TGI (CAKI-1 renal)
96.7 µM: TGI (LOX IMVI melanoma)
25 µM: TGI (HCC-2998 colon)
90.8 µM: TGI (SN12C renal)
53.7 µM: TGI (UACC-62 melanoma)
49.1 µM: TGI (OVCAR-3 ovarian)
53.6 µM: TGI (NCI/ADR-RES ovarian)
> 100 µM: TGI (K-562 leukemia) | TGI (DU-145 prostate) | TGI (EKVX NSCLC) | TGI (RXF 393 renal) | TGI (HOP-92 NSCLC) | TGI (HOP-62 NSCLC) | TGI (786-0 renal) | TGI (HS 578T breast) | TGI (MCF7 breast) | TGI (CCRF-CEM leukemia) | TGI (T-47D breast) | TGI (COLO 205 colon) | TGI (MOLT-4 leukemia) | TGI (PC-3 prostate) | TGI (RPMI-8226 leukemia) | TGI (SK-MEL-28 melanoma) | TGI (UACC-257 melanoma) | TGI (OVCAR-5 ovarian) | TGI (SNB-75 CNS) | TGI (NCI-H522 lung) | TGI (MDA-MB-231 breast) | TGI (SNB-19 CNS) | TGI (NCI-H226 lung) | TGI (IGROV1 ovarian) | TGI (A549 NSCLC) | TGI (SR leukemia) | TGI (HT29 colon) | TGI (SF-539 CNS) | TGI (NCI-H460 lung) | TGI (TK-10 renal) | TGI (SW-620 colon) | TGI (BT-549 breast) | TGI (SF-268 CNS) | TGI (OVCAR-8 ovarian) | TGI (HCT-116 colon) | TGI (OVCAR-4 ovarian) | TGI (UO-31 renal) | TGI (NCI-H23 lung) | TGI (HL-60(TB) leukemia) | TGI (ACHN renal) | TGI (U251 CNS) | TGI (KM12 colon) | TGI (A498 renal) | TGI (HCT-15 colon) | TGI (M14 melanoma)
inactive: GI50 (K-562 leukemia) 41.6 µM | GI50 (DU-145 prostate) 56.6 µM | GI50 (SF-295 CNS) 20.5 µM | GI50 (MDA-MB-435) 18.7 µM | GI50 (EKVX NSCLC) 27.8 µM | GI50 (RXF 393 renal) > 100 µM | GI50 (HOP-92 NSCLC) 17.5 µM | GI50 (HOP-62 NSCLC) 33.8 µM | GI50 (786-0 renal) 56.2 µM | GI50 (HS 578T breast) 49.7 µM | GI50 (MCF7 breast) 60.2 µM | GI50 (CCRF-CEM leukemia) 36.2 µM | GI50 (OVCAR-3 ovarian) 12.2 µM | GI50 (T-47D breast) 29.6 µM | GI50 (SK-MEL-5 melanoma) 17.5 µM | GI50 (COLO 205 colon) 11.2 µM | GI50 (MOLT-4 leukemia) 27 µM | GI50 (PC-3 prostate) 31 µM | GI50 (RPMI-8226 leukemia) 6.99 µM | GI50 (MALME-3M melanoma) 21.2 µM | GI50 (SK-MEL-28 melanoma) 42.2 µM | GI50 (UACC-257 melanoma) 36.2 µM | GI50 (OVCAR-5 ovarian) 30.2 µM | GI50 (SNB-75 CNS) 52.2 µM | GI50 (NCI-H522 lung) 34.5 µM | GI50 (CAKI-1 renal) 19.4 µM | GI50 (MDA-MB-231 breast) 27.9 µM | GI50 (SNB-19 CNS) 33.6 µM | GI50 (NCI-H226 lung) 45.5 µM | GI50 (IGROV1 ovarian) 49.3 µM | GI50 (A549 NSCLC) 36.7 µM | GI50 (NCI/ADR-RES ovarian) 13.6 µM | GI50 (SR leukemia) > 100 µM | GI50 (HT29 colon) 39.2 µM | GI50 (SF-539 CNS) 33.6 µM | GI50 (NCI-H460 lung) 52.3 µM | GI50 (TK-10 renal) 30.2 µM | GI50 (LOX IMVI melanoma) 29.4 µM | GI50 (SW-620 colon) 40.6 µM | GI50 (BT-549 breast) 39.1 µM | GI50 (SF-268 CNS) 64.3 µM | GI50 (SN12C renal) 22.7 µM | GI50 (OVCAR-8 ovarian) 34.7 µM | GI50 (HCC-2998 colon) 0.585 µM | GI50 (HCT-116 colon) 26.5 µM | GI50 (OVCAR-4 ovarian) 90.7 µM | GI50 (UO-31 renal) 42.8 µM | GI50 (NCI-H23 lung) 27.2 µM | GI50 (HL-60(TB) leukemia) > 100 µM | GI50 (ACHN renal) 66.8 µM | GI50 (U251 CNS) 23.5 µM | GI50 (KM12 colon) 14.9 µM | GI50 (UACC-62 melanoma) 18.4 µM | GI50 (A498 renal) 37 µM | GI50 (HCT-15 colon) 45 µM | GI50 (M14 melanoma) 35.5 µM
51.6 µM: TGI (MDA-MB-435)
59.3 µM: TGI (SF-295 CNS)
94.6 µM: TGI (MALME-3M melanoma)
36.7 µM: TGI (SK-MEL-5 melanoma)
